Data from patent US20240366648A1, “NAD-AUGMENTATION THERAPY FOR PARKINSON'S DISEASE” (Vestlandets Innovasjonsselskap AS (VIS), priority 2021, published 2024).

Columns and labels:
individuals with PD = test: Phase II trial, brain MRI at baseline and week 52 (Example 3); type: in vivo, human; details: 80 individuals who completed 52 weeks (1000 mg NR or placebo, blinded)
Method: To further test NR as a neuroprotective therapy for PD, and in particular to assess NR in delaying nigrostriatal degeneration or denervation, and clinical disease progression in patients with early PD, a multi-centre phase II randomized double-blinded clinical trial is performed, comparing NR to placebo in individuals with early stage PD.
Each capsule of NR contains 250 mg of NR. Patients are administered orally 2 capsules (each 250 mg) two times a day (1000 mg daily total) for the duration of the study (52 weeks). Placebo capsules are administered similarly (2 capsules two times a day). The study medication is to be taken every day during the treatment period, including prior to study visits and imaging.
The present study is a randomized, double-blind phase 11 trial, where a total of 400 individuals with PD receive 1000 mg NR or placebo for a period of 52 weeks. Extensive medical testing and screening, including brain MRI, is performed both at baseline and end-of-study (i.e., after 52 weeks of exposure). […] The therapy can therefore be considered not to be associated with an increase in glioma or brain neoplasm prevalence over the duration of treatment.

[1] = tested on: individuals with Parkinson's disease; test: High-dose NR safety study in PD (Example 5); type: in vivo, human; details: oral NR 3000 mg daily, 4 weeks
Method: • To determine the safety of oral NR 3000 mg daily for a period of 4 weeks in individuals with Parkinson's disease (PD). Safety is defined as the absence of NR-associated moderate or severe adverse events (AE).
This is a single center, phase I double blinded, randomized, placebo controlled drug-safety study.
20 patients are included in this study: 10 receiving 3000 mg oral NR and 10 receiving placebo.
Each capsule of NR contains 250 mg of NR. Patients administer orally 6 capsules (1500 mg) two times daily (3000 mg daily total) for the duration of the study (4 weeks). Placebo capsules are administered similarly (6 capsules two times daily). The study medication is to be taken every day during the treatment period, including prior to study visits.
An adverse event (AE) can therefore be any unfavourable and unintended sign (including an abnormal laboratory finding), symptom, or disease temporally associated with the use of a investigational product, whether or not related to the investigational product. The term AE is used to include both serious and non-serious AEs. If an abnormal laboratory value/vital sign is associated with clinical signs and symptoms, the sign/symptom is reported as an AE and the associated laboratory result/vital sign is considered as additional information that must be collected. Only intensity 2 and 3 is registered as AE. […]

NC(=O)c1ccc[n+]([C@@H]2O[C@H](CO)[C@@H](O)[C@H]2O)c1 [NR, nicotinamide riboside]
cases of glioma or other brain neoplasms on brain MRI (individuals with PD): no cases of glioma or any other brain neoplasms | adverse events reported throughout the study [1]: no serious adverse events or any adverse events of medical significance
